Laboratory results: ChEMBL document CHEMBL1201862, “PubChem BioAssay data set” (2004)
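Where inhibition never reached the appropriate level, the endpoint shown equals the highest concentration tested. Otherwise, values were interpolated linearly from a five-concentration, 48-hour dose response in 96-well plates. At the GI50, growth is halved.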 Calls of active or inactive are those of the source. No stated cut-off is given here; in the data, active = GI50 up to about 1.1 µM and inactive = higher.

Columns and labels:
Assay in all cases: NCI tumour cell line growth inhibition, 48 h
[1] = tested on: A549
[2] = tested on: ACHN
[3] = tested on: BT-549
[4] = tested on: COLO 205
[5] = tested on: DMS-273
[6] = tested on: HOP-62
[7] = tested on: IGROV-1
[8] = tested on: K562
[9] = tested on: KM12
[10] = tested on: M14
[11] = tested on: MOLT-4
[12] = tested on: Malme-3M
[13] = tested on: NCI-H460
[14] = tested on: NCI/ADR-RES
[15] = tested on: OVCAR-3
[16] = tested on: OVCAR-4
[17] = tested on: PC-3
[18] = tested on: SK-MEL-28
[19] = tested on: TK-10
[20] = tested on: UACC-62

Measured: GI50

CSc1nc(NC2OC(COC(C)=O)C(OC(C)=O)C(OC(C)=O)C2OC(C)=O)c(/N=C\C=N/c2c(NC3OC(COC(C)=O)C(OC(C)=O)C(OC(C)=O)C3OC(C)=O)nc(SC)n(C)c2=O)c(=O)n1C (configuration not stated)
inactive: [1] > 100 µM | [2] 83.9 µM | [3] > 65.6 µM | [4] > 100 µM | [5] > 100 µM | [6] 4.32 µM | [7] 65.8 µM | [8] > 100 µM | [9] > 100 µM | [10] > 4.65 µM | [11] > 100 µM | [12] 81.5 µM | [13] > 100 µM | [14] > 100 µM | [15] > 15.5 µM | [16] > 100 µM | [17] > 100 µM | [18] > 100 µM | [19] 45.9 µM | [20] > 94.8 µM

O=C1C(=O)N(c2cccc(C(F)(F)F)c2)C(=O)C(=O)C1c1nc2ccccc2s1
inactive: [1] > 100 µM | [2] > 65.2 µM | [3] > 100 µM | [4] > 100 µM | [5] > 100 µM | [6] 64.9 µM | [7] > 81.7 µM | [8] 51.2 µM | [9] > 64 µM | [10] 98.2 µM | [11] 43.3 µM | [12] 68.1 µM | [13] > 100 µM | [14] 45.2 µM | [15] 48.6 µM | [16] > 92.5 µM | [17] > 100 µM | [18] > 100 µM | [19] > 90.8 µM | [20] > 100 µM

COc1ccc(/C=N\N2C(=O)Cc3ccccc32)cc1
inactive: [1] > 100 µM | [2] > 100 µM | [4] > 100 µM | [5] > 100 µM | [6] 64.1 µM | [7] > 100 µM | [8] 95.5 µM | [9] > 100 µM | [10] 86.1 µM | [11] 41.4 µM | [12] > 100 µM | [13] > 100 µM | [15] > 100 µM | [16] > 100 µM | [18] > 100 µM | [19] 59.6 µM | [20] > 100 µM
